Laboratory results taken from patent US8470765B2, “Polypeptides and antibacterial or antiseptic use of same” (AnGes MG, Inc., priority 2009, dated 2013).
≈ marks a conversion by molar mass, not a printed value. Like-named read-outs stand apart in the source and are kept apart here. No end group written: not given here.

How the values were obtained:
[1] = tested on: Actinobacillus actinomycetemcomitans JCM2434
[2] = tested on: Micrococcus luteus NBRC13867
[3] = tested on: Rhizopus oryzae NBRC 31005
[4] = tested on: Pseudomonas aeruginosa 8 (clinical strain)
Procedure: (§1) Bacteria (Escherichia coli ATCC 25922, Pseudomonas aeruginosa ATCC 27853, Staphylococcus aureus ATCC29213, Klebsiella pneumoniae JCM 1662, Enterobacter cloacae JCM 1232, Enterobacter aerogenes JCM 1235 and Staphylococcus epidermidis JCM 2414) were inoculated to Mueller-Hinton broth: MHB or LB medium, and cultured at a temperature and period suited for each strain. From the thus obtained colonies, each strain was inoculated to a fresh liquid medium and cultured for 16 to 20 hours. Then an aliquot having a volume (10 to 50 appropriate to each strain was inoculated to a fresh liquid medium and cultured for 4 to 6 hours, followed by the measurement of the absorbance at 600 nm. After comparing the turbidity with McFarland #0.5, the resultant was diluted with a medium. Each strain was added to about 10^5 CFU/mL (final concentration).
(§2) Further, the antibacterial activities against the clinical strains collected and isolated from infected patients were also examined. The tests were carried out for two methicillin-resistant Staphylococcus (MRSA) (MRSA (i) and (ii)), two methicillin-sensitive Staphylococcus (MSSA) (MSSA (i) and (ii)), five Pseudomonas aeruginosa, Pseudomonas aeruginosa 1, Pseudomonas aeruginosa 6, Pseudomonas aeruginosa 8. Pseudomonas aeruginosa 9 and Pseudomonas aeruginosa 12, totally 9 clinical strains. The MRSA and MSSA clinical strains were tested by the same method as Staphylococcus aureus ATCC29213, and Pseudomonas clinical strains were tested by the same method as Pseudomonas aeruginosa ATCC 27853.
(§3) Each of the peptide solutions to be tested was diluted with MHB to obtain a solution of 128 μg/mL. This solution was serially diluted with the medium to prepare peptide-containing media having concentrations of 128, 64, 32, 16, 8.0, 4.0 and 2.0 μg/mL respectively. […] By dilution with sterilized purified water to 1.0 mg/mL, positive control-containing media having concentrations of 16, 8, 4, 2, 1.0, 0.25, 0.12 and 0.06 μg/mL, respectively for TOB; 0.5, 0.12 and 0.06 μg/mL, respectively, for OX; and 16, 8, 4, 2, 1.0, 0.25, 0.12, 0.06, 0.06, 0.03 and 0.008 μg/mL, respectively, for MEPM, were prepared.
(§4) To a 96-well microtiter plate, 0.1 mL of the inoculation solution and 0.1 mL of the peptide- or positive control-containing medium having the respective concentration were added, and cultured at 37° C. for 16 to 24 hours (or a time period suited for the growth of the respective strain). The well not containing the sample was used as a negative control. After the culturing, the growth was visually observed, and the minimum concentration at which the growth was inhibited was defined as the minimum growth inhibition concentration (MIC).
(§5) The medium used in this test for bacteria was Mueller-Hinton broth. Independent experiments were carried out twice or more for each strain.

[5] = tested on: Pseudomonas aeruginosa ATCC 27853; assay: ATP Assay (viability at 3 hours), Table 6; assay type: cell-based; conditions: for Pseudomonas aeruginosa ATP (viability, relative value to negative control): 3 h, 5 μg/mL; for viability at 10 µg/mL: ATCC27853, 3 h, read-out: Pseudomonas aeruginosa ATP (viability, relative value to negative control)
Outline: (§6)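 Log-phase bacteria at about 10^5 CFU/mL final in Mueller-Hinton broth were exposed 3 h at 37 °C to peptide (solution prepared at 10 μg/mL before 1:1 mixing with inoculum). ATP (BacTiter-Glo luminescence) relative to untreated wells defined viability; two independent experiments.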

[6] = tested on: Staphylococcus aureus ATCC29213; assay: ATP Assay (viability at 3 hours), Table 6; assay type: cell-based; conditions: for Staphylococcus aureus ATP (viability, relative value to negative control): 3 h, 5 μg/mL; for viability at 10 µg/mL: ATCC29213, 3 h, read-out: Staphylococcus aureus ATP (viability, relative value to negative control)
Outline: as §6

[7] = tested on: Streptococcus pyogenes JCM5674
[8] = tested on: Fusobacterium nucleatum JCM 11025
[9] = tested on: Cryptococcus neoformans IFM 46660
[10] = tested on: Salmonella enteritidis IID 604
[11] = tested on: methicillin-sensitive Staphylococcus (MSSA) MSSA(i); assay: organism not typed; conditions: Table 4; clinical strain; first/second value where not identical
Procedure: as §1, §2, §3, §4, §5

[12] = tested on: methicillin-resistant Staphylococcus (MRSA) MRSA(ii); assay: organism not typed; conditions: for MIC: read-out: MIC MRSA(ii)
Procedure: as §1, §2, §3, §4, §5

[13] = tested on: methicillin-sensitive Staphylococcus (MSSA) MSSA(ii); assay: organism not typed; conditions: for MIC: read-out: MIC MSSA(ii)
Procedure: as §1, §2, §3, §4, §5

[14] = tested on: methicillin-resistant Staphylococcus (MRSA) MRSA(i); assay: organism not typed; conditions: for MIC: read-out: MIC MRSA(i)
Procedure: as §1, §2, §3, §4, §5

[15] = Table 4, two tests, first/second value where not identical
[16] = Table 4, clinical strain, first/second value where not identical
[17] = methicillin-sensitive Staphylococcus (ii)
[18] = methicillin-resistant Staphylococcus (i)
[19] = methicillin-resistant Staphylococcus (ii)

Row | Compound | MIC Actinobacillus actinomycetemcomitans [1] [µg/mL] | MIC Micrococcus luteus [2] [µg/mL] | MIC Pseudomonas aeruginosa 8 ([4]; 8 (clinical strain)) [µg/mL] | Pseudomonas aeruginosa ATP (viability, relative value to negative control) [5] | Staphylococcus aureus ATP (viability, relative value to negative control) [6] | MIC Streptococcus pyogenes [7] [µg/mL] | MIC Fusobacterium nucleatum ([8]; JCM 11025) [µg/mL] | MIC Cryptococcus neoformans ([9]; IFM 46660) [µg/mL] | MIC Fusarium solani (Fusarium solani JCM11383; JCM11383) [µg/mL] | MIC Salmonella Enteritidis ([10]; IID 604) [µg/mL] | MIC Rhizopus oryzae ([3]; NBRC 31005) [µg/mL] | MIC MSSA(i) [11] | MIC MSSA(ii) [13, 17] [µg/mL] | MIC MRSA(i) [14, 18] [µg/mL] | MIC Fusarium solani (Fusarium solani JCM11383; [15]) | MIC MRSA(ii) [12, 19] [µg/mL] | other results
1 | IFLHRLKRMRKRLKRKLRLW-OH [SRP-7] | 128 | 2 | 32 | 1.0 | 0.2 | 32 | 4 | 2 | 8 | 4 |  |  |  |  |  |  | MIC Rhizopus oryzae [3, 15]: 8/16
2 | GRLKRMGERLKRKIQKWIRW-NH2 [SRP-15] | 32 | 4 | 16 | 1.6 | 0.3 | 16 | 4 | 2 |  |  | 16 | 16/32 | 16 | 16 | 16/32 |  | MIC MRSA(ii) [12, 16]: 16/32; MIC Salmonella Enteritidis [10, 15]: 8/16
3 | LIFLHRLKRMRKRLKRKLRL-NH2 [SRP-12] |  |  |  | 1.0 | 0.2 |  |  | 1 |  |  | 8 | 16 µg/mL | 16 | 32 |  |  | MIC Pseudomonas aeruginosa 8 [4, 16]: 32/64; MIC MRSA(ii) [12, 16]: 32/64
4 | RLKRMRKRLKRKLRLWHRKRYK-NH2 [SRP-8] | > 128 | 2 | 16 | 0.9 | 0.4 | 64 | > 128 |  | 4 | 64 | 8 | 32/64 | 32 | 64 |  | 64 | MIC Cryptococcus neoformans [9, 15]: 1/2
5 | KLIFLRELRRLRKRLKRKLR-NH2 [SRP-16] | 128 | 2 | 16 | 1.0 | 0.4 | 32 | 128 | 2 |  | 4 |  | 16/32 | 16 | 32 | 4/8 | 64 | MIC Rhizopus oryzae [3, 15]: 8/16
6 | C[C@@H](O)[C@H]1C(=O)N2C(C(=O)O)=C(S[C@@H]3CN[C@H](C(=O)N(C)C)C3)[C@H](C)[C@H]12 [meropenem, reference compound] |  |  |  |  |  |  |  |  |  |  |  |  |  |  |  |  | viability at 10 µg/mL [5]: 16.1%; viability at 10 µg/mL [6]: 15.7%; MIC [12]: 8 to 16 µg/mL (≈ 20.9 to 41.7 µM); MIC [13]: 4 to 8 µg/mL (≈ 10.4 to 20.9 µM); MIC [14]: < 4000 µg/mL
7 | GRLKRMGKRLKRKIQKWARW-NH2 [SRP-14] | 64 | 4 | 16 | 1.0 | 0.3 | 16 | 4 | 1 | 4 | 4 | 8 | 16/32 |  |  |  |  | MIC MRSA(ii) [12, 16]: 16/32; MIC MSSA(ii) [13, 16]: 16/32; MIC MRSA(i) [14, 16]: 16/32
8 | KNLRRIIRKIIHIIKKYG-NH2 [Ovispirin-1, reference compound] | 128 | 2 |  |  |  | 32 |  |  |  | 16 | > 128 | 16/32 | 16 | 32 | 4/8 | 32 | MIC Pseudomonas aeruginosa 8 [4, 16]: 32/64; MIC Fusobacterium nucleatum [8, 15]: 2/4; MIC Cryptococcus neoformans [9, 15]: 2/4
9 | RLKRMRKRLKRKLRLW-NH2 [SRP-17] | > 128 | 1 |  | 1.0 | 0.3 | 128 | > 128 | 2 | 8 | 8 | 8 |  |  |  |  |  | MIC Pseudomonas aeruginosa 8 [4, 16]: 64/128
10 | KLIFLHRLKRELRKRLKRKLR-NH2 [SRP-13] | 128 | 2 | 16 | 2.2 | 2.0 | 32 | 4 | 2 |  | 4 | 8 | 16/32 | 16 | 64 | 4/8 | 64 | 
11 | NC[C@H]1O[C@H](O[C@H]2[C@H](O)[C@@H](O[C@H]3O[C@H](CO)[C@@H](O)[C@H](N)[C@H]3O)[C@H](N)C[C@@H]2N)[C@H](N)C[C@@H]1O [tobramycin, reference compound] |  |  |  |  |  |  |  |  |  |  |  |  |  |  |  |  | viability at 10 µg/mL [5]: 1.2%; viability at 10 µg/mL [6]: 6.7%; MIC [12]: > 16000 µg/mL; MIC [13]: 4 µg/mL (≈ 8.56 µM); MIC [14]: > 16000 µg/mL
